The nature of experiment [1]: Rhenium molecular probe-lipid overlay (dot blot). It counts as binding. Set-up: key to interaction with Sphingomyline (dot blot): ✓ indicates a positive interaction; x indicates no interaction. The method, then:
(§1) The experimental protocol probe-lipid overlay was as follows: 50 μM of each lipids was loaded on to PVDF membranes (Perkin Elmer, USA), which were then incubated with molecular probes. PhenCyano and PhenPyridyl were assessed against eleven lipids including; sphingomyelin (Cat # S0756, Sigma Aldrich, USA), sphingosine (Cat # S7049; Sigma Aldrich, USA), L-phosphatidylethanolamine (Cat # P7943, Sigma Aldrich, USA), monosialodanglioside (GM1; Cat # G7641, Sigma Aldrich, USA), oleoly-L-?-lysophosphatidic acid (Cat # L7260, Sigma Aldrich, USA), palmitic acid (Cat # P5917, Sigma Aldrich, USA), sphingomyelin (Cat # S0756, Sigma Aldrich, USA), sphingosine (Cat # S7049; Sigma Aldrich, USA), L-?-phosphatidylethanolamine (Cat # P7943, Sigma Aldrich, USA), monosialodanglioside (GM1; Cat # G7641, Sigma Aldrich, USA), progesterone (Cat #102722, MP Biomedical, USA), ceramide (Cat # C2137; Sigma Aldrich, USA), triacylglycerol mix C2-C10 (Cat #17810, Sigma Aldrich, USA) and cholesteryl acetate (Cat #151114; Sigma Aldrich, USA).
(§2) All other molecular probes were assessed against a panel of six lipids including; sphingomyelin (Cat # S0756, Sigma Aldrich, USA), sphingosine (Cat # S7049; Sigma Aldrich, USA), L-?-phosphatidylethanolamine (Cat # P7943, Sigma Aldrich, USA), monosialodanglioside (GM1; Cat # G7641, Sigma Aldrich, USA), sphingomyelin (Cat # S0756, Sigma Aldrich, USA), sphingosine (Cat # S7049; Sigma Aldrich, USA), L-?-phosphatidylethanolamine (Cat # P7943, Sigma Aldrich, USA), monosialodanglioside (GM1; Cat # G7641, Sigma Aldrich, USA) and triacylglycerol mix C2-C10 (Cat #17810, Sigma Aldrich, USA).
(§3) Lipids were dissolved in ethanol, methanol or isopropanol for loading depending on solubility. Following lipid loading, membranes were left to dry for 20-30 minutes, then they were washed for 10 minutes in cold 10% ethanol, before they were incubated with 10 μM solution of each Rhenium molecular probe in cold 10% ethanol for one hour. Membranes were than washed four times for 10 minutes in cold 10% ethanol prior to imaging. Imaging was performed on an Image Quant Las 4000 (GE, Sweden) luminescent image analyser, with the Rhenium molecular probe being detected by excitation at 460 nm using an epi-blue light source, and detected using an 575 nm ethidium bromide filter.

Experiment [2] in a line: Rhenium molecular probe-lipid overlay (dot blot). Type of experiment: binding. Further details: key to interaction with Cholestryl acetate (dot blot): ✓ indicates a positive interaction; x indicates no interaction. The method, then: as §1, §3
A short description of experiment [3]: Rhenium molecular probe-lipid overlay (dot blot). Type of experiment: binding. The conditions noted are these: FIG. 7. The method, then: as §1
Lipids were dissolved in ethanol, methanol or isopropanol for loading depending on solubility. […] Imaging was performed on an Image Quant Las 4000 (GE, Sweden) luminescent image analyser, with the Rhenium molecular probe being detected by excitation at 460 nm using an epi-blue light source, and detected using an 575 nm ethidium bromide filter.

A short description of experiment [4]: Rhenium molecular probe-lipid overlay (dot blot). Type of experiment: binding. The conditions noted are these: FIG. 7. The method, then: as §1, §3
A short description of experiment [5]: Rhenium molecular probe-lipid overlay (dot blot). It counts as binding. The note with it: FIG. 7 / FIG. 8. The method, then:
as §1, §2, §3

The nature of experiment [6]: Rhenium molecular probe-lipid overlay (dot blot). Type of experiment: binding. The note with it: FIG. 7 / FIG. 8. The method, then: as §1, §2, §3
Experiment [7] is described as follows: Rhenium molecular probe-lipid overlay (dot blot). The conditions noted are these: FIG. 7 / FIG. 8. Type of experiment: binding. Here is the method:
as §1, §2, §3

Experiment [8] has as its system 3T3 L1 cells. Nature of the experiment: Live cell staining with rhenium molecular probes. It counts as cell-based. The conditions noted are these: live samples, 10-20 μM probe. Here is the method: (§4) Probes were dissolved in DMSO to obtain a stock solution with a concentration of 10 mM. Stock solutions were stored at room temperature in a dark place. Working solutions were prepared only at the time of use as the probe has reduced solubility in aqueous solutions. A Working solution was a dilution 1/1000 to 1/500 of the stock in DMSO to PBS or cell medium, and as such the percentage of DMSO used in actual cell experiments was less than 1%.
(§5) For tissues, the tissues were isolated in PBS (or other physiological media) and mounted on a coverslip. For cells, these were grown as per normal practice on coverslips.
(§6) The media was removed media and replaced with 10-20 μM solution of molecular probes in PBS (or appropriate physiological media/cell media) at a dilution of stock solution from 1/1000-1/500, for 15-30 minutes at physiologically appropriate temperature (37° C. for cell culture or 25° C. for insect larvae). […] If foetal calf serum is necessary for cell health, an increased incubation time may be necessary to obtain adequate staining.
The samples were washed for one minute in PBS. […]
Micrographs of 3T3 L1, 453 cells and CHOK1 cells and Drosophila fat body tissue stained with rhenium molecular probes, PhenCyan top, PhenPyridyl bottom are shown in FIG. 10. […] Left: confocal images; Right: fluorescence microscopy images.

The test system of experiment [9] is Drosophila fat body cells. Put plainly: Live tissue staining with rhenium molecular probes (Examples 10, 13). It counts as cell-based. The conditions noted are these: live samples, 10-20 μM probe. The method, then: as §4, §5, §6
The samples were washed for one minute in PBS. If co-staining was performed, the samples were washed in PBS for 30 seconds, before incubating with counterstain.
Tissues were mounted in optical coupling gel, such as carbomer-940 (Snowdrift farm, Tucson, USA) based gel to prevent dehydration prior to imaging and maintain tissue integrate (Rothstein, E. C., Nauman, M., Chesnick S., Balaban R. S., 2006, Multi-photon excitation microscopy in intact animals Journal of Microscopy 222, 58, 64). For cells, the coverslip was mounted in PBS for immediate imaging.
Samples were imaged immediately following staining.
Rhenium molecular probes were? excited at 800-830 nm using a two-photon pulse laser or 405 steady state laser and detection in the range of 490-670 nm, with an emission maxima at around 570.
Micrographs of 3T3 L1, 453 cells and CHOK1 cells and Drosophila fat body tissue stained with rhenium molecular probes, PhenCyan top, PhenPyridyl bottom are shown in FIG. 10. […] Left: confocal images; Right: fluorescence microscopy images. […]

The nature of experiment [10]: Rhenium molecular probe-lipid overlay (dot blot). It counts as binding. Set-up: key to interaction with GM1 (dot blot): ✓ indicates a positive interaction; x indicates no interaction. The method, then: as §1, §2, §3
Experiment [11] can be described thus: Rhenium molecular probe-lipid overlay (dot blot). It counts as binding. Set-up: key to interaction with Lysophosphatidic acid (dot blot): ✓ indicates a positive interaction; x indicates no interaction. The method, then:
as §1, §3

The nature of experiment [12]: Rhenium molecular probe-lipid overlay (dot blot). Further details: key to interaction with PE (dot blot): ✓ indicates a positive interaction; x indicates no interaction. Type of experiment: binding. Here is the method:
as §1, §2, §3

Experiment [13] can be described thus: Rhenium molecular probe-lipid overlay (dot blot). The note with it: FIG. 7. It counts as binding. Here is the method: as §1, §3
The mark [14] stands for this setting: 10 μM probe, 50 μM lipid on PVDF membrane.

For `O=[C]=[Re](=[C]=O)(=[C]=O)[n]1nnc(-c2cccnc2)n1.c1cnc2c(c1)ccc1cccnc12` [PhenPyridyl, Triscarbonyl phenanthroline (3-pyridyltetrazolato)Rhenium(I)], in experiment [1] (setting [14]), the “interaction with Sphingomyline (dot blot)” value is given as “✓”. The “affinity towards sphingomyelin, in words” value in [1] (FIG. 7 / FIG. 8) is reported as “some affinity”. In experiment [2] (setting [14]), the “interaction with Cholestryl acetate (dot blot)” value was “x”. Also, in experiment [2] (FIG. 7), the “interaction with cholesterol ester (cholesteryl acetate), in words” value is on record as “no interaction detected”. The “interaction with fatty acid (palmitic acid), in words” value in experiment [3] was “no interaction detected”. The “affinity towards progesterone, in words” value in [4] was “some affinity”. Besides, the “interaction with triglycerides, in words” value in experiment [5] is “no interaction detected”. Moreover, the “affinity towards sphingosine, in words” value in experiment [6] is given as “some affinity”. Moreover, the “affinity towards cholesterol, in words” value in [7] is “some affinity”. Also, the “staining pattern in 3T3 L1 cells” value in [8] is “limited to no lipid droplet staining”. The “staining pattern in Drosophila fat body cells” value in experiment [9] is reported as “limited to no lipid droplet staining”. Further, the “interaction with GM1 (dot blot)” value in experiment [10] (setting [14]) is on record as “✓”. Moreover, in experiment [10] (FIG. 7 / FIG. 8), the “affinity towards monosialotetrahexosylganglioside (GM1), in words” value is “some affinity”. Moreover, the “interaction with Lysophosphatidic acid (dot blot)” value in experiment [11] (setting [14]) was “✓”. Further, the “affinity towards lysophosphatidic acid, in words” value in experiment [11] (FIG. 7) is recorded as “some affinity”. For the same compound, the “interaction with PE (dot blot)” value in experiment [12] (setting [14]) is recorded as “✓”. The “affinity towards phosphatidylethanolamine (PE), in words” value in [12] (FIG. 7 / FIG. 8) is recorded as “some affinity”. Also, the “interaction with ceramide, in words” value in experiment [13] is “no interaction detected”.

Source of the values: US20170328922A1, “METHODS AND PRODUCTS FOR LABELLING LIPIDS” (UNIVERSITY OF SOUTH AUSTRALIA, priority 2014, published 2017).
